What all share (assay): growth of human tumour cells (NCI), 48 h
Assay [1] relates to A498 renal.
Assay [2] relates to CCRF-CEM leukemia.
Assay [3] relates to COLO 205 colon.
Assay [4] deals with HCT-15 colon.
For assay [5], the system named is HL-60(TB) leukemia.
Assay [6] has as its system HOP-62 NSCLC.
Assay [7] deals with MOLT-4 leukemia.
Assay [8] deals with SF-295 CNS.
Assay [9] has as its system SR leukemia.
The subject of assay [10] is UACC-62 melanoma.
Assay [11] has as its system HS 578T breast.
Assay [12] has as its system MDA-MB-435.

Values joined by “and” are separate entries in the source; they are usually repeats but may differ in a detail not shown here. Equal entries are not always repeated.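 Protocol summary: plate cells (96-well), add compound at 5 concentrations, incubate 48 h, interpolate endpoints linearly. GI50 marks 50% less growth. TGI denotes the concentration required for complete inhibition of growth.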 *1 amine or outer side, *2 acyl side, *3 side chain or, on linkers, in order; H or OH if unused. Where a SMILES comes first, the peptide text is derived from it. Bridges are numbered along the chain shown (N, C = ends). [ ]: non-standard residue; d: D form. The star is where a group is joined. X59 = COc1c(N[*:1])cccc1C(=O)O[C@H](C(=O)[C@H](C)C(=O)[*:2])C(C)C; X58 = CC(C)C[C@H](C(=O)[*:2])C(C)C(=O)C1CCCN1[*:1]; NMeY = CN[C@@H](Cc1ccc(O)cc1)C(=O)O; Boc = CC(C)(C)OC(=O)*; Lac = C[C@H](O)C(=O)O; Bn = c1ccc(C*)cc1

Regarding `O=C(Nc1ccccc1[N+](=O)[O-])C(=O)C(C(=O)c1ccccc1-c1ccccc1)C1OC(=O)c2ccccc21` (stereo not given), the TGI in assay [1] is 37.8 µM; in assay [2], 76.1 µM; in [3] it was 32.6 µM; in assay [4] it was 30 µM; in assay [5] it was 47.6 µM; in assay [6], 36 µM. Also, the TGI is 85.4 µM in assay [7], 39.3 µM in assay [8], 49 µM in assay [9] and 32.8 µM in [10].

With `O=C1CC2(CCNCC2)C(=O)N1N1CCCCC1`, the TGI in assay [1], in assay [2], in assay [3], in assay [4], in assay [5] and in [6] was over 100 µM throughout. Besides, the TGI in [11], in assay [7], in assay [8], in [9] and in assay [10] was over 100 µM in each case.

Regarding `O=C1COc2cc3c(cc2N1)SCCC(=O)N3`, the TGI in assay [1], in assay [2], in [3], in [5], in [6] and in assay [7] was over 100 µM throughout. Moreover, the TGI in assay [8], in assay [9] and in assay [10] was over 100 µM in each case.

For the molecule `C=C(C)CCN(C(=O)OC(C)(C)C)c1cc(C(C)C)co1`, the TGI in assay [1] was over 100 µM; in [2] it was over 100 µM; in assay [3], over 100 µM; in assay [4], over 100 µM; in [5] it was 43.8 µM; in assay [6] it was over 100 µM. The TGI is over 100 µM in assay [12]; 98 µM in assay [7]; over 100 µM in [8]; over 100 µM in assay [9]; over 100 µM in assay [10].

For `COc1ccc2cc(/C=N\NC(=O)Nc3ccc([N+](=O)[O-])cc3)ccc2c1`, the TGI in assay [3] was 17.9 µM; in [4] it was 25 µM; in [5], 30.7 µM; in assay [6], 41.6 µM; in assay [11], over 31.6 µM; in assay [12] it was 25.1 µM. The values for the TGI in [7], in assay [8] and in [10] were 21.8 µM, 20.7 µM and 19.2 µM, respectively.

Turning to `COC(=O)C1=C(C(=O)OC)C(OO)(c2ccccc2)OC1=O` (stereo not given), the TGI in assay [2], in [3], in assay [4], in assay [5], in assay [12] and in [7] was over 100 µM in each case. Further, the TGI in assay [8], in [9] and in assay [10] was over 100 µM throughout.

On to `COC(=O)C(CC(C)C)NC(=O)CNC(=O)C(Cc1ccc(OCc2ccccc2)cc1)NC(=O)C(COCc1ccccc1)NC(=O)OC(C)(C)C` (stereo not given) (Boc-S(Bn)Y(Bn)GL-OMe; configuration not given here), for which the TGI is over 100 µM in assay [3]; 39.7 µM in assay [5]; over 100 µM in [6]; over 100 µM in assay [11]; over 100 µM in assay [12]; over 100 µM in assay [7]. Besides, the TGI in assay [8], in [9] and in assay [10] was over 100 µM throughout.

For the molecule `C=CCN(N=O)C(=O)N(CCCCC(NC(C)=O)C(=O)NCc1ccccc1)Cc1ccccc1` (stereo not given), the TGI is over 100 µM in assay [1]; 80.4 µM in assay [2]; 51.7 µM in assay [3]; over 100 µM in assay [4]; 43.5 µM in assay [5]; over 100 µM in [6]. For the same molecule, the TGI in assay [7] was 45.4 µM; in [8] it was over 100 µM; in assay [10], over 100 µM.

Regarding `Cc1ccc(S(=O)(=O)OI(O)CC(F)(F)F)cc1`, the TGI in assay [1], in assay [2], in [3], in [4], in assay [5] and in [6] was over 100 µM throughout. Further, the TGI in [12], in assay [7], in [8], in [9] and in assay [10] was over 100 µM each time.

Consider `CC(C)(C)Cc1cc(O)ccc1O`, for which the TGI in [1] is over 100 µM; in assay [2], 93.9 µM; in assay [3] it was over 100 µM; in assay [4], over 100 µM; in [5], 26.6 µM; in assay [6], over 100 µM. The TGI in assay [12], in [7], in assay [8], in assay [9] and in assay [10] was over 100 µM each time.

In the case of `O=c1cc(-c2ccc3ccccc3c2)[nH]c2ncccc12`, the TGI in [1] was 48.7 µM; in assay [2] it was over 100 µM; in assay [3], over 100 µM; in assay [4], over 100 µM; in assay [5] it was 4.55 µM; in [6] it was over 100 µM. In addition, the TGI in [11] was over 100 µM; in [7], over 100 µM; in assay [8], over 100 µM; in assay [9] it was 6.1 µM; in assay [10], over 100 µM. Further, the GI50 in assay [5] was 1.8 µM; in assay [8], 9.19 µM.

With `CC(CC(C)[C@H]1CCC2[C@H]3C(CC(=O)[C@@]21C)[C@@]1(C)CCC(O)C[C@H]1C[C@@H]3O)C(=O)O` (stereo not given in full), the TGI in [1], in [2], in assay [3], in [4], in assay [5] and in [6] was over 100 µM throughout. The TGI in assay [12], in [7], in assay [9] and in assay [10] was over 100 µM each time.

As for `CC(=O)OC1CC2C(C)(C)OC(=O)CC(OC(C)=O)[C@]2(C)C2CCC3(C)C(=CCC3c3ccoc3)[C@]12C` (stereo not given in full), the TGI in assay [1] is over 100 µM; in [2], 87.3 µM; in assay [3] it was 29.8 µM; in assay [4], over 100 µM; in assay [5], over 100 µM; in assay [6], 96.6 µM. Moreover, the TGI is 52 µM in assay [7], 98.3 µM in assay [8], 50.8 µM in [9] and over 100 µM in assay [10].

`COc1cc(/C=C2\C(=O)N(c3ccc(NC(C)=O)cc3)C(c3ccccc3)S2(=O)=O)cc(OC)c1OC` (stereo not given): the TGI in assay [1] is over 100 µM; in assay [2], over 100 µM; in [3] it was over 100 µM; in assay [4], over 100 µM; in [5], 79.1 µM; in assay [6], over 100 µM. Further, the TGI in [12], in assay [7], in assay [8], in assay [9] and in assay [10] was over 100 µM throughout.

On to `Cn1nc(S(N)(=O)=O)s/c1=N/S(=O)(=O)c1ccc(N)cc1`, for which the TGI in assay [1], in assay [3], in assay [4], in [6], in assay [7] and in assay [8] was over 100 µM each time. This molecule also returned a TGI in assay [10] of over 100 µM.

In the case of `Brc1ccc(N=Nc2ccc3ccccc3n2)cc1`, the TGI in assay [2] is over 100 µM; in assay [3] it was over 100 µM; in assay [4], over 100 µM; in assay [5] it was over 100 µM; in assay [11], 56.6 µM; in assay [12], over 100 µM. In addition, the results for the TGI in assay [8] and in assay [10] were over 100 µM and 43.5 µM, respectively.

For the molecule `O=C(CSc1nc2ccc(I)cc2c(=O)n1Cc1ccccc1)NN1C(=O)CSC1c1ccccc1` (stereo not given), the TGI in [2] was over 100 µM; in assay [3], 34.6 µM; in assay [4] it was 40.5 µM; in assay [5], 58.9 µM; in assay [6] it was 48.5 µM; in assay [12], 69.6 µM. The TGI is over 100 µM in assay [7], 76 µM in assay [8], over 100 µM in [9] and 36.7 µM in assay [10].

Regarding `COc1ccc(C[C@H]2C(=O)O[C@H](C)[C@H](NC(=O)[C@@H](CC(C)C)C(C)C(=O)C3CCCN3C(=O)[C@H](C)O)C(=O)Nc3cccc(c3OC)C(=O)O[C@@H](C(C)C)C(=O)[C@H](C)C(=O)N[C@@H](CC(C)C)C(=O)N3CCC[C@H]3C(=O)N2C)cc1` (stereo not given in full) (H-[Lac][X58]T[X59]LP[NMeY](Me); ester 3-C), the TGI in assay [3], in assay [4], in assay [6], in assay [11], in assay [12] and in assay [7] was over 12.5 µM in each case. For the same molecule, the TGI in [8], in assay [9] and in [10] was over 12.5 µM throughout.

On to `CC1CN=C(NS(=O)(=O)c2cc(C(=O)Nc3ccccc3)c(Cl)cc2S)NN1` (stereo not given), for which the TGI was 57.4 µM in [1]; over 100 µM in assay [2]; over 100 µM in assay [3]; over 100 µM in [4]; over 100 µM in assay [5]; over 100 µM in assay [6]. Besides, the TGI in assay [12] is 52.5 µM; in assay [7] it was over 100 µM; in assay [8] it was over 100 µM; in [9], over 100 µM; in assay [10], over 100 µM.

For `CN(C(=O)c1cc2c(s1)sc1c(=O)n(C)c3ccccc3c12)c1ccccc1`, the TGI in assay [2], in assay [3], in assay [4], in [12], in assay [7] and in [8] was over 100 µM each time. Further, the TGI in [9] and in assay [10] was over 100 µM throughout.

Consider `C/C(CC(=O)Nc1ccccc1)=N\NC(N)=S`, for which the TGI in [2], in [3], in assay [5], in assay [6], in assay [7] and in assay [8] was over 100 µM throughout. The TGI in assay [10] is over 100 µM.

For the molecule `O=C(NN1C(=O)C(Cl)C1c1cccc(Cl)c1)c1ccccc1O` (stereo not given), the TGI in [1], in assay [2], in [4], in [5], in [7] and in [8] was over 100 µM throughout. The TGI in [10] is over 100 µM.

Turning to `Cc1ccc(S(=O)(=O)NC(=O)NCC(N)=O)cc1`, the TGI in assay [2], in assay [3], in assay [4], in [5], in assay [6] and in [11] was over 100 µM each time. For the same molecule, the TGI in [7], in assay [8] and in assay [10] was over 100 µM throughout.

Take `O=[N+]([O-])c1cc(Cl)ccc1S(=O)(=O)c1ccc(Cl)cc1[N+](=O)[O-]`: the TGI in [2] was over 100 µM; in assay [3], 30.7 µM; in assay [4], 33 µM; in assay [5], 58 µM; in [6], 35.9 µM; in assay [7], 84.4 µM. The TGI in assay [8] turned out to be 29 µM; in assay [9], 40.3 µM; in assay [10], 31 µM.

`O=c1[nH]cc(COCC(O)CO)c(=O)[nH]1` (stereo not given): the TGI in [1], in assay [2], in assay [3], in assay [4], in [5] and in assay [6] was over 100 µM in each case. Moreover, the TGI in assay [7], in [8] and in [10] was over 100 µM throughout.

Turning to `C=CCN1C(=O)/C(=C/c2ccc(OC)cc2)N=C1SC1OC(COC(C)=O)C(OC(C)=O)C(OC(C)=O)C1OC(C)=O` (stereo not given), the TGI is > 100 µM and 86.2 µM in assay [1]; over 100 µM in assay [2]; over 100 µM in assay [3]; over 100 µM in assay [4]; > 94 µM and 15.4 µM in [5]; 40 µM and > 100 µM in assay [6]. Also, the TGI was 46.5 µM and > 100 µM in assay [12]; over 100 µM in [7]; 48.8 µM and > 100 µM in assay [8]; over 100 µM in [9]; 48.1 µM and > 100 µM in [10]. Further, the GI50 in assay [2] was 21.7 µM; in assay [5] it was 11.5 µM and 2.9 µM; in assay [6], 17.5 µM and 90 µM; in [12], 18.6 µM and > 100 µM; in assay [7], 58.3 µM and 24.7 µM; in assay [8], 21 µM and 70.3 µM. Also, the GI50 in assay [10] is 18.8 µM and 43.6 µM.

The values above are taken from PubChem BioAssay (NCI).
